Measurements published in ChEMBL document CHEMBL5543086, “Discovery of novel NSAID hybrids as cPLA2/COX-2 dual inhibitors alleviating rheumatoid arthritis via inhibiting p38 MAPK pathway” (Eur J Med Chem, 2024).
Calls of active or inactive are those of the source. No cut-off for these calls is given here.

Assays:
RAW264.7 [1] = experiment: Cytotoxicity against LPS-induced mouse RAW264.7 cells assessed as reduction in cell viability at 30 uM pretreated for 1 hr followed by LPS addition and measured after 24 hrs by MTT assay; type: toxicity, cell-based; details: raw264.7, 25 h
RAW264.7 [2] = experiment: Antiinflammatory activity in LPS-induced mouse RAW264.7 cells assessed as inhibition of NO production pretreated for 1 hr followed by LPS stimulation and measured after 24 hrs by griess reagent based assay; type: functional, cell-based
Rattus norvegicus [3] = experiment: (§1) Immunomodulatory activity in Freund's complete adjuvant induced Lewis rat model of arthritis assessed as increase in anti-IL-10 antibody expression in knee joint slices at 20 mg/kg, po administered every 24 hrs for 28 days post immunization starting from day 8 post immunization by immunohistochemistry analysis; type: functional, organism-based; details: time 21.0 day
Rattus norvegicus [4] = experiment: Antiarthritic activity in Freund's complete adjuvant induced Lewis rat model of arthritis assessed as reduction in PGE2 level in serum at 20 mg/kg, po administered every 24 hrs for 28 days post immunization starting from day 8 post immunization by ELISA; type: functional, organism-based; details: time 21.0 day
[5] = Toxicity in male Wistar rat assessed as gastrointestinal damage by measuring level-3 ulcers with >3 mm area at 50 mg/kg administered by gavage and measured after 6 hrs; type: organism-based; details: in vivo, po
[6] = Toxicity in male Wistar rat assessed as gastrointestinal damage by measuring number of ulcers at 50 mg/kg administered by gavage and measured after 6 hrs (reference value: 0); type: organism-based; details: in vivo, po
Rattus norvegicus [7] = experiment: Immunomodulatory activity in Freund's complete adjuvant induced Lewis rat model of arthritis assessed as increase in IL-10 level in serum at 20 mg/kg, po administered every 24 hrs for 28 days post immunization starting from day 8 post immunization by ELISA; type: functional, organism-based; details: time 21.0 day
[8] = Toxicity in male Wistar rat assessed as gastrointestinal damage by measuring level-2 ulcers with 1 to 3 mm area at 50 mg/kg administered by gavage and measured after 6 hrs; type: organism-based; details: in vivo, po
Rattus norvegicus [9] = experiment: Antiarthritic activity in Freund's complete adjuvant induced Lewis rat model of arthritis assessed as reduction in TNFalpha level in serum at 20 mg/kg, po administered every 24 hrs for 28 days post immunization starting from day 8 post immunization by ELISA; type: functional, organism-based; details: time 21.0 day
Rattus norvegicus [10] = experiment: as §1, with “decrease” for “increase”, “anti-IL-17” for “anti-IL-10”; type: functional, organism-based; details: time 21.0 day
Rattus norvegicus [11] = experiment: Immunomodulatory activity in Freund's complete adjuvant induced Lewis rat model of arthritis assessed as reduction in IL-17 level in serum at 20 mg/kg, po administered every 24 hrs for 28 days post immunization starting from day 8 post immunization by ELISA; type: functional, organism-based; details: time 21.0 day
[12] = Toxicity in male Wistar rat assessed as gastrointestinal damage by measuring ulcer index at 50 mg/kg administered by gavage and measured after 6 hrs; type: organism-based; details: in vivo, po
[13] = Toxicity in male Wistar rat assessed as gastrointestinal damage by measuring level-1 ulcers with <1 mm area at 50 mg/kg administered by gavage and measured after 6 hrs; type: organism-based; details: in vivo, po
Rattus norvegicus [14] = experiment: Antiarthritic activity in Freund's complete adjuvant induced Lewis rat model of arthritis assessed as reduction in IL-6 level in serum at 20 mg/kg, po administered every 24 hrs for 28 days post immunization starting from day 8 post immunization by ELISA; type: functional, organism-based; details: time 21.0 day

Structure (SMILES)	Activity (RAW264.7 [1])	also measured
CCCCCCCC/C=C\CCCCCCCCCC/C=C(/OC(=O)C(C)c1ccc(-c2ccccc2)c(F)c1)C(F)(F)F (stereo not drawn)	Non-Toxic	–
CCCCCCCCCCCCCCCC/C=C(/OC(=O)C(C)c1ccc(-c2ccccc2)c(F)c1)C(F)(F)F (stereo not drawn)	Non-Toxic	–
CCCCC/C=C\C/C=C\C/C=C\C/C=C\CC/C=C(/OC(=O)C(C)c1ccc(-c2ccccc2)c(F)c1)C(F)(F)F (stereo not drawn)	Non-Toxic	IC50 (RAW264.7 [2]): 7.08 µM
CCCCC/C=C\C/C=C\C/C=C\C/C=C\CC/C=C(/OC(=O)[C@@H](C)c1ccc2cc(OC)ccc2c1)C(F)(F)F	Non-Toxic	IC50 (RAW264.7 [2]): 6.67 µM
CC(C(=O)O)c1cccc(C(=O)c2ccccc2)c1 (stereo not drawn) [KETOPROFEN]	Non-Toxic	Activity (Rattus norvegicus [3]): Active; Activity (Rattus norvegicus [4]): Active; Activity [5]: 4%; Activity [6]: 23; Activity (Rattus norvegicus [7]): Active; Activity [8]: 30%; Activity (Rattus norvegicus [9]): Active; Activity (Rattus norvegicus [10]): Active; Activity (Rattus norvegicus [11]): Active; UI [12]: 40; Activity [13]: 65%; Activity (Rattus norvegicus [14]): Active; IC50 (RAW264.7 [2]): 7.07 µM
CCCCCCCC/C=C\CCCCCCCCCC/C=C(/OC(=O)c1ccccc1OC(C)=O)C(F)(F)F	Non-Toxic	–
CCCCCCCCCCCCCCCCCC/C=C(/OC(=O)C(C)c1ccc(CC(C)C)cc1)C(F)(F)F (stereo not drawn)	Non-Toxic	–
CCCCC/C=C\C/C=C\C/C=C\C/C=C\CC/C=C(/OC(=O)Cc1c(C)n(C(=O)c2ccc(Cl)cc2)c2ccc(OC)cc12)C(F)(F)F	Non-Toxic	–
CCCCCCCCCCCCCCCCC/C=C(/OC(=O)C(C)c1ccc(CC(C)C)cc1)C(F)(F)F (stereo not drawn)	Non-Toxic	–
CCCCCCCCCCCC/C=C(/OC(=O)C(C)c1ccc(CC(C)C)cc1)C(F)(F)F (stereo not drawn)	Non-Toxic	–
CCCCCCC/C=C(/OC(=O)[C@@H](C)c1ccc2cc(OC)ccc2c1)C(F)(F)F	Non-Toxic	–
CCCCCCCCCCCCCC/C=C(/OC(=O)c1ccccc1OC(C)=O)C(F)(F)F	Non-Toxic	–
CCC/C=C(/OC(=O)C(C)c1ccc(CC(C)C)cc1)C(F)(F)F (stereo not drawn)	Non-Toxic	–
CCCCC/C=C\C/C=C\CCCCCC/C=C(/OC(=O)c1ccccc1OC(C)=O)C(F)(F)F	Non-Toxic	–
CCCCCCCC/C=C\CCCCCCCCCC/C=C(/OC(=O)C(C)c1ccc(CC(C)C)cc1)C(F)(F)F (stereo not drawn)	Non-Toxic	–
CCCCCCCC/C=C(/OC(=O)C(C)c1ccc(CC(C)C)cc1)C(F)(F)F (stereo not drawn)	Non-Toxic	–
CCCCCCCCCCCCCC/C=C(/OC(=O)C(C)c1ccc(-c2ccccc2)c(F)c1)C(F)(F)F (stereo not drawn)	Non-Toxic	–
CCCCCCCCCCCCCCCC/C=C(/OC(=O)C(C)c1ccc(CC(C)C)cc1)C(F)(F)F (stereo not drawn)	Non-Toxic	–
CCCCCCCCCCCCCCCCCCCC/C=C(/OC(=O)[C@@H](C)c1ccc2cc(OC)ccc2c1)C(F)(F)F	Non-Toxic	–
CCCCCCCC/C=C\CCCCCC/C=C(/OC(=O)C(C)c1ccc(-c2ccccc2)c(F)c1)C(F)(F)F (stereo not drawn)	Non-Toxic	–
CCCCC/C=C\C/C=C\CCCCCC/C=C(/OC(=O)C(C)c1ccc(C(=O)c2ccccc2)cc1)C(F)(F)F (stereo not drawn)	Non-Toxic	–

Structure (SMILES)	Activity (RAW264.7 [1])	also measured
CCCCCCCC/C=C\CCCCCC/C=C(/OC(=O)c1ccccc1OC(C)=O)C(F)(F)F	Non-Toxic	–
CCCCCC/C=C(/OC(=O)c1ccccc1OC(C)=O)C(F)(F)F	Non-Toxic	–
CCCCCCCCCC/C=C(/OC(=O)C(C)c1ccc(-c2ccccc2)c(F)c1)C(F)(F)F (stereo not drawn)	Non-Toxic	–
CCCCC/C=C\C/C=C\C/C=C\C/C=C\CC/C=C(/OC(=O)C(C)c1ccc(CC(C)C)cc1)C(F)(F)F (stereo not drawn)	Non-Toxic	IC50 (RAW264.7 [2]): 4.74 µM
CCCCCCCC/C=C(/OC(=O)C(C)c1ccc(-c2ccccc2)c(F)c1)C(F)(F)F (stereo not drawn)	Non-Toxic	–
CCCCC/C=C\C/C=C\CCCCCC/C=C(/OC(=O)C(C)c1ccc(-c2ccccc2)c(F)c1)C(F)(F)F (stereo not drawn)	Non-Toxic	–
CCCCCCCCCCCCCC/C=C(/OC(=O)C(C)c1ccc(CC(C)C)cc1)C(F)(F)F (stereo not drawn)	Non-Toxic	–
CCCCCCCCCCCC/C=C(/OC(=O)c1ccccc1OC(C)=O)C(F)(F)F	Non-Toxic	–
CCCCCCCC/C=C\CCCCCCCCCC/C=C(/OC(=O)[C@@H](C)c1ccc2cc(OC)ccc2c1)C(F)(F)F	Non-Toxic	–
CCCCC/C=C\C/C=C\CCCCCC/C=C(/OC(=O)[C@@H](C)c1ccc2cc(OC)ccc2c1)C(F)(F)F	Non-Toxic	–
CCCCCCCC/C=C(/OC(=O)[C@@H](C)c1ccc2cc(OC)ccc2c1)C(F)(F)F	Non-Toxic	–
CCCCCCC/C=C(/OC(=O)C(C)c1ccc(CC(C)C)cc1)C(F)(F)F (stereo not drawn)	Non-Toxic	–
CCCC/C=C(/OC(=O)C(C)c1ccc(CC(C)C)cc1)C(F)(F)F (stereo not drawn)	Non-Toxic	–
CCCCCCCCCCCCC/C=C(/OC(=O)C(C)c1ccc(CC(C)C)cc1)C(F)(F)F (stereo not drawn)	Non-Toxic	–
CCCCC/C=C\C/C=C\C/C=C\C/C=C\CCCC(=O)C(F)(F)F [ARACHIDONYL TRIFLUOROMETHYLKETONE]	Non-Toxic	–
CCCCCCCCCCCCCCCCCCCC/C=C(/OC(=O)C(C)c1ccc(-c2ccccc2)c(F)c1)C(F)(F)F (stereo not drawn)	Non-Toxic	–
CCCCCCCCCCCCCCCCCCCC/C=C(/OC(=O)C(C)c1ccc(CC(C)C)cc1)C(F)(F)F (stereo not drawn)	Non-Toxic	–
CCCCCCCCCCCCCCC/C=C(/OC(=O)C(C)c1ccc(CC(C)C)cc1)C(F)(F)F (stereo not drawn)	Non-Toxic	–
CCCCCCCCCCCCCC/C=C(/OC(=O)[C@@H](C)c1ccc2cc(OC)ccc2c1)C(F)(F)F	Non-Toxic	–
CCCCC/C=C\C/C=C\C/C=C\C/C=C\CC/C=C(/OC(=O)c1ccccc1OC(C)=O)C(F)(F)F	Non-Toxic	–
CCCCCC/C=C(/OC(=O)C(C)c1ccc(CC(C)C)cc1)C(F)(F)F (stereo not drawn)	Non-Toxic	–

Structure (SMILES)	Activity (RAW264.7 [1])	also measured
CCCCCCCCCC/C=C(/OC(=O)C(C)c1ccc(CC(C)C)cc1)C(F)(F)F (stereo not drawn)	Non-Toxic	–
CCCCCCCCCCCCCCCCCC/C=C(/OC(=O)c1ccccc1OC(C)=O)C(F)(F)F	Non-Toxic	–
CCCCC/C=C\C/C=C\CCCCCC/C=C(/OC(=O)C(C)c1ccc(CC(C)C)cc1)C(F)(F)F (stereo not drawn)	Non-Toxic	–
CCCCCCCCCCCCCCCC/C=C(/OC(=O)[C@@H](C)c1ccc2cc(OC)ccc2c1)C(F)(F)F	Non-Toxic	–
CCCCCCCC/C=C(/OC(=O)c1ccccc1OC(C)=O)C(F)(F)F	Non-Toxic	–
CCCCCCC/C=C(/OC(=O)c1ccccc1OC(C)=O)C(F)(F)F	Non-Toxic	–
CCCCCCCC/C=C\CCCCCC/C=C(/OC(=O)[C@@H](C)c1ccc2cc(OC)ccc2c1)C(F)(F)F	Non-Toxic	–
CCCCCCCCCCCCCCCCCC/C=C(/OC(=O)C(C)c1ccc(C(=O)c2ccccc2)cc1)C(F)(F)F (stereo not drawn)	Non-Toxic	–
CCCCCCCCCCCCCCCCCCCC/C=C(/OC(=O)c1ccccc1OC(C)=O)C(F)(F)F	Non-Toxic	–
CCCCCCCCCCCCCCCCCC/C=C(/OC(=O)[C@@H](C)c1ccc2cc(OC)ccc2c1)C(F)(F)F	Non-Toxic	–
CCCCCCCCCCCCCCCCCC/C=C(/OC(=O)C(C)c1ccc(-c2ccccc2)c(C)c1)C(F)(F)F (stereo not drawn)	Non-Toxic	–
C=CCCCCCCC/C=C(/OC(=O)[C@@H](C)c1ccc2cc(OC)ccc2c1)C(F)(F)F	Non-Toxic	–
CCCCCCCCCCCCCCCC/C=C(/OC(=O)c1ccccc1OC(C)=O)C(F)(F)F	Non-Toxic	–
CCCCCCCCCC/C=C(/OC(=O)C(C)c1ccc(C(=O)c2ccccc2)cc1)C(F)(F)F (stereo not drawn)	Non-Toxic	–
CCCCCCCCCC/C=C(/OC(=O)[C@@H](C)c1ccc2cc(OC)ccc2c1)C(F)(F)F	Non-Toxic	–
CCCCCCCCCC/C=C(/OC(=O)c1ccccc1OC(C)=O)C(F)(F)F	Non-Toxic	–
CCCCCCCC/C=C\CCCCCC/C=C(/OC(=O)C(C)c1ccc(CC(C)C)cc1)C(F)(F)F (stereo not drawn)	Non-Toxic	–
C=CCCCCCCC/C=C(/OC(=O)C(C)c1ccc(-c2ccccc2)c(F)c1)C(F)(F)F (stereo not drawn)	Non-Toxic	–
CCCCCCC/C=C(/OC(=O)C(C)c1ccc(-c2ccccc2)c(F)c1)C(F)(F)F (stereo not drawn)	Non-Toxic	–
CCCCCCCCCCCC/C=C(/OC(=O)[C@@H](C)c1ccc2cc(OC)ccc2c1)C(F)(F)F	Non-Toxic	–
